Measured values as given in US20260293937A1, “SHRIMP FEED AND METHODS OF USE THEREOF” (Organicin Scientific, Inc., priority 2023, published 2026).
“And” between values parts separate entries of the source, which are not always exact repeats. Identical values can stand only once. No end group written: not given here.

Experiments:
[1] = tested on: brine shrimp (Artemia salina); assay: Brine shrimp toxicity of Nisin formulations (Example 4); format: in vivo; conditions: Nisin in citric acid buffer solution, reduced pH; data not shown
Protocol: This Example describes the efficacy of various Nisins: Nisin Z, Nisin A, and ImmuCell Nisin A. This experiment assessed the safety and antimicrobial efficacy of various Nisin formulations in treating Vibrio parahaemolyticus infections, a common pathogen in aquaculture environments. Brine shrimp (Artemia salina) were utilized as a model organism to simulate potential impacts on Pacific whiteleg shrimp (Penaeus vannamei).
Nisin variants (Nisin A, Nisin Z, and ImmuCell Nisin A) were dissolved in either citric acid buffer (CAB, pH 3.4) for Nisin A or dH2O for Nisin Z to make a stock solution of 4.86 mg/mL. Serial dilutions were performed to achieve the different concentrations (4.86 mg/mL to 0.005 mg/mL) for the experiments.
Artemia salina eggs were hatched in artificial seawater (Instant Ocean) under controlled conditions. Newly hatched brine shrimp were then exposed to varying concentrations of each Nisin solution in experimental tanks. A separate set of tanks was used for each type of Nisin formulation.
Control tanks (treated with either CAB or saline water) were prepared to observe the natural behavior and survival rate of Artemia salina without Nisin exposure.
Brine shrimp were divided into different tanks for exposure to varying concentrations (2.43 mg/mL, 0.608 mg/mL, 0.152 mg/mL, and 0.038 mg/mL) of Nisin A, Nisin Z, and ImmuCell Nisin A.
Mortality and behavior of the brine shrimp were recorded at 24 and 48 hours post-exposure. For the antimicrobial tests, the diameter of inhibition zones on agar plates containing the laboratory control strains were measured and recorded.

pathogenic Vibrio = assay: Minimum inhibitory concentration, all Vibrio species; format: cell-based; conditions: all species of Vibrio
Protocol: (§1) This Example describes the materials and methods, and results of a serial dilution experiment to determine the Minimum Inhibitory Concentration (MIC) of Nisin in reducing a concentration of pathogenic Vibrio.
(§2) On the day before the experiment, Vibrio stock were prepared by sterilizing an inoculation loop, cooling the product, and extracting cells. Such extract was incubated at 37° C. for 16 to 20 hours. The density of cells was normalized to a cell density of approximately 10^7 to 10^8 CFU/mL and 100 uL lawns were prepared at a cell density of about 10^6 to 10^7 CFU using sterile glass beads. Four lawns were made so that each Nisin dilution could be tested on two identical plates.
(§3) 5 μL of two-fold dilutions (See Table 1, below) of Nisin (Immucell; 99% pure), or shrimp feed (without Nisin), citric acid, or DH20 negative controls, respectively, were spotted on the plates, which were incubated at 37° C. for 16 to 20 hours. The minimum inhibitory concentration was determined. In particular, plates were characterized based upon the presence (0) or absence (1) of Vibrio growth.

Vibrio cholerae = assay: Minimum inhibitory concentration by serial two-fold dilution spotted on Vibrio lawns; format: cell-based; conditions: individual V. cholerae lines; 37° C., 16 to 20 hours
Protocol: as §1, §2, §3

Vibrio alginolyticus = assay: as above; format: cell-based; conditions: individual V. alginolyticus lines; 37° C., 16 to 20 hours
Protocol: as §1, §2, §3

Vibrio parahaemolyticus = assay: as above; format: cell-based; conditions: individual V. parahaemolyticus lines; 37° C., 16 to 20 hours
Protocol: as §1, §2, §3

Nisin: Nisin (Immucell; 99% pure) in Example 1; bacteriocin Nisin in shrimp feed at 0.84, 8.4 and 84 mg/g in Example 2 (ITSISLCTPGCKTGALMGCNMKTATCHCSIHVSK; cysteine pairing not given here; also: lantibiotic, modifications not placed; UniProt P13068 24-57, looked up)
cause of mortality in toxicity trials [1]: mortality that is not related to the peptide Nisin itself
MIC compared with negative control (pathogenic Vibrio): significantly smaller MIC than the negative control
MIC (Vibrio cholerae): 1,057.5 ug/mL and 8.3 ug/mL and 2,115.0 ug/mL and 132.2 ug/mL and 1.06 wt/v % and 0.01 wt/v % and 2.12 wt/v % and 0.13 wt/v %
MIC (Vibrio alginolyticus): 8.3 ug/mL and 66.1 ug/mL and 2,115.0 ug/mL and 0.01 wt/v % and 0.07 wt/v % and 2.12 wt/v %
MIC (Vibrio parahaemolyticus): 1,057.5 ug/mL and 33.1 ug/mL and 66.1 ug/mL and 528.8 ug/mL and 8.3 ug/mL and 1.06 wt/v % and 0.03 wt/v % and 0.07 wt/v % and 0.53 wt/v % and 0.01 wt/v %
